This experiment concerns HMEC-1 cells treated with CXCR3 siRNA. Briefly: Tube formation in CXCR3 siRNA-treated cells. The experiment is classed as cell-based, human. The conditions noted are these: CXCR3 knockdown; concentrations as in Experiment 3. As to the method:
In the various experiments detailed below, unless otherwise noted, siRNA down regulation of CXCR3 was accomplished according to the following procedure. HMEC-1 cells were plated at 5.5×10^5 cells/60 mm dish and incubated overnight. The cells were 90-95% confluent. Cells were transfected with 4 μM siRNA (2 μM Sigma, 2 μM Santa Cruz) using Dharamacon #4 transfection reagent. The cells were incubated for 24 hours, and then placed in EGM-2MV media for 48 hours. The cells were then transfected again as indicated above. After 48 hours of incubation in EGM-2MV media the cells were then used for experimentation.
In the various experiments described below, to the extent not otherwise noted, CXCR3 siRNA transfection was preformed according to the procedure as previously described by Koh et al. (“Methods in Enzymology,” 2008, vol 443, p. 84), and summarized briefly as follows. HMEC-1 cells were plated in 6 well tissue culture plate at 4.0×10^5 cells/well in complete MCDB131 media and incubated overnight. The cells were ˜75% confluent. The media was removed and replaced with serum free Opti-Mem and incubated for 30 minutes. Dharmafect #4 was added to Opti-Mem to a final concentration of 2.5% (final volume […]) then incubated for 5 minutes at room temp. In parallel, CXCR3 siRNA was diluted in Opti-Mem to a final concentration of […] then incubated for 5 minutes at room temp. […]

For the sequence “PESKAIKNLLKAVSKEMSKRSP (IP-10dp; listed as Homo sapiens) [synthetic fragment of IP-10 comprising residues 78-98, the C-terminal α-helical domain]”, the “formation of tubes in CXCR3 siRNA-treated cells” value was “did not show a significant difference”.

For the origin of these results see patent publication US8734775B2, “Chemokine derived peptides that bind with chemokine receptor CXCR3 and uses for chronic wound and angiogenesis inhibition treatments” (University of Pittsburgh, priority 2011, dated 2014).
